What was measured:
[1] = Maximum tolerated dose (MTD) and systemic toxicity in healthy mice; assay type: in vivo, BALB/c mice; conditions: for Animal Death / Weight Loss: n=3, 14 days
Description: Changes in body weight and survival of mice were followed every 1-2 days for two weeks. […] On day 14 post drug injection, blood was withdrawn by cardiac puncture and major organs (e.g., heart, liver, and kidneys) were collected. Blood was collected in lithium heparin tubes (BD Microtainer™) followed by centrifuging at 2,000×g for 10 minutes in a refrigerated centrifuge. The supernatant (serum) was sent to University of Arizona University Animal Care Pathology Services Core for a series of serum chemistry analysis. The whole blood in dipotassium EDTA tube (BD Microtainer™) were used for leukocytes, erythrocytes, and thrombocytes analysis. Mice organs from MTD dose and vehicle control groups were placed in a 4% paraformaldehyde solution for 24 h and then sent to Tissue Acquisition and Cellular/Molecular Analysis Shared Resource (TACMASR) at University of Arizona Cancer Center for histopathological analysis.

[2] = Pharmacokinetics in orthotopic CT26-Luc tumor-bearing mice; conditions: for AUC(0-inf) / AUC(0-t) / MRT / half-life: BALB/c, mouse, plasma, iv; for AUMC / CL / V / Vss: single IV, nanovesicles 6.7/20 mg DOX-IND/CPT/kg
Description: The various pharmacokinetics parameters were assessed by one-compartmental model using PKSolver software.

CT26 tumor = assay: Therapeutic efficacy in SC CT26 tumor bearing mice; assay type: in vivo, BALB/c mice; conditions: single IV on day 9 (˜50 mm^3); free CPT 5 mg/kg, Camptothesomes and Onivyde 20 mg CPT or irinotecan/kg
Description: 1×10^5 CT26 cells in 100 μL of serum free medium were SC injected in the right flank of the BALB/c mice (n=5 or 6). […] To determine the effect on survival rate in each group (n=6). Kaplan-Meier plots were used to express animal survival rate. For the efficacy study in FIG. 8D-8H, mice were euthanized on day 21; tumors were collected and soaked in 4% paraformaldehyde overnight prior to the immune phenotypic [CD8, Granzyme B, Perforin, Cleaved caspase-3 (CC-3), and IFN-γ] analysis using IHC staining by University of Arizona TACMASR.

[3] = Blood kinetics of CPT in SC CT26 tumor bearing mice
Description: Following a single IV injection via tail vein of free CPT (5 mg CPT/kg, MTD) and different Camptothesomes (20 mg CPT/kg) to SC CT26 tumor bearing mice (n=3, ˜300 mm^3), blood was withdrawn at 0.083, 0.333, 1, 2.5, 8, 12 and 24 h and plasma (via plasma tube, BD Microtainer™) was collected and digested in methanol (90 μL methanol/10 μL serum) for HPLC analysis to measure the released CPT and SM-derived CPT conjugates. 24 h after drug IV administration, tumor tissues and major organs (heart, liver, spleen, lung, and kidneys) were collected, weighed, and then homogenized in acidified methanol (0.075 M HCl, 900 μL/100 mg tissues) followed by drug content determination using an established HPLC method. […] Mice were sacrificed at 2.5 h and 72 h post drug administration, the drug content in the collected tumor tissues and organs were processed, and analyzed as described above.

MC38 tumor = assay: Therapeutic efficacy in SC MC38 tumor bearing mice; assay type: in vivo, C57BL/6 mice; conditions: ˜300 mm^3, single IV at eq. 20 mg CPT/kg and 6.7 mg DOX-IND/kg
Description: In FIG. 8I-8J, 2×10^5 cells/mouse in 100 μL of serum free medium were SC injected to C57BL/6 (n=6). […] Mice survival rate was closely monitored every day.
Mouse weight was monitored every 3 days, and mice survival was monitored every day.
In FIG. 16E-161, 4×10^5 cells/mouse in 100 μL of serum free medium were SC injected to C57BU6 (n=6). Mice were IV injected once with various treatments at equivalent (eq.) 20 mg CPT/kg and 6.7 DOX-IND mg/kg when tumors grew to ˜300 mm^3. α-CD8 (BioXCell, clone 53-6.7) was IP injected at 200 μg/mouse/3 days from day 17. On day 23, mice were euthanized, and tumor tissues were isolated and equally cut into 3 pieces; one part for IHC staining for CD8, Foxp3, Calreticulin, IFN-γ, Perforin, Granzyme B, CC-3) by University of Arizona TACMASR; another two parts for Western blotting of P-S6K and RT-PCR for IL-6, respectively. Mouse weight was monitored every 3 days, and mice survival was monitored every day.
In FIG. 16K-16N, 2×10^5 cells/mouse were SC injected to C57BL/6 (n=5). When tumors reached ˜400 mm^3, mice received a single IV injection with various treatments at eq. […] Mouse weight was monitored every 3-4 days, and mice survival was monitored every day.

[4] = Lago optical imaging of in vivo tumor delivery of Cy5.5-labeled Camptothesome-4; design: species or system BALB/c mice; conditions: SC CT26 tumor mice, entire monitored period (24 h)
Description: M ice were imaged at 0 h (prior to drug administration), and 2.5, 8, 12, and 24 h post IV injection (excitation=675 nm; emission=710 nm). At 24 h, tumors, heart, liver, spleen, lung, and kidneys were imaged using Lago optical imager. For tumor penetration investigation, tumors were frozen in an acetone/dry ice mixture prior to immunofluorescence examination. The tumor blood vessels were stained with a primary anti-CD31 (a.k.a. PECAM-1) antibody (Abcam, ab28364, 1:50), followed by an Alexa Fluor 488-conjugated secondary antibody (Abcam, ab150073, 1:400). DAPI was used to localize the cellular nuclei. Tumor tissues were cut into […] slide section by University of Arizona TACMASR and subject to the confocal laser scanning microscopy using Leica SP5-II confocal microscope (Buffalo Grove, IL) at University of Arizona Cancer Center Imaging Core.

[5] = Blood kinetics of CPT, free CPT 5 mg/kg
[6] = BALB/c, mouse, plasma, iv, 5 mg/kg
[7] = single IV, free CPT 5 mg/kg, Camptothesomes 20 mg CPT/kg, SC CT26 tumor mice, n=3
[8] = Blood kinetics of IND, IND 1.7 mg/kg

CC[C@@]1(O)C(=O)OCc2c1cc1n(c2=O)Cc2cc3ccccc3nc2-1 [Free CPT, (S)-(+)-camptothecin]
Animal Death ([1]; Dose 5 mg/kg, single IV): 0/3 | Weight Loss ([1]; Dose 5 mg/kg, single IV): 1.82% | Animal Death ([1]; Dose 7.5 mg/kg, single IV): 1/3 | Animal Death ([1]; Dose 10 mg/kg, single IV): 1/3 | Animal Death ([1]; Dose 12.5 mg/kg, single IV): 0/3 | Weight Loss ([1]; Dose 12.5 mg/kg, single IV): 25.35% | systemic toxicity (serum chemistry, blood counts, H&E of organs) ([1]; at MTD, day 14 post IV injection): severe systemic toxicities | MTD at 14 days ([1]; mouse, in vivo, single IV, healthy BALB/c mice, 14 days, no death, not more than 15% weight loss): 5 mg/kg | AUC(0-inf) ([2]; 5 mg/kg): 9480 ± 880 ng·h/mL | AUC(0-t) ([2]; 5 mg/kg): 9470 ± 870 ng·h/mL | MRT ([2]; 5 mg/kg): 51.6 ± 2.4 min | half-life ([2]; 5 mg/kg): 3.6 ± 0.6 min | AUMC [2, 5]: 8.12 ± 0.38 μg/mL*h2 | CL [2, 5]: 10.62 ± 1.00 μg/(μg/mL)/h | V [2, 5]: 0.77 ± 0.23 μg/(μg/mL) | Vss [2, 5]: 9.16 ± 1.30 μg/(μg/mL) | tumor growth (CT26 tumor): significant tumor reduction | half-life ([3]; BALB/c, mouse, in vivo, iv, 5 mg/kg): 4.2 ± 0.6 min | AUC(0-inf) [3, 6]: 11200 ± 1520 ng·h/mL | AUC(0-t) [3, 6]: 11000 ± 1550 ng·h/mL | MRT [3, 6]: 351 ± 24.6 min | elimination from blood / circulation half-life ([3]; SC CT26 tumor mice, single IV): rapidly eliminated from blood | AUMC [3, 7]: 65.42 ± 6.99 μg/mL · h^2 | CL [3, 7]: 36.06 ± 5.00 µg/µg/mL/h | V [3, 7]: 26.44 ± 0.27 µg/µg/mL | Vss [3, 7]: 211.68 ± 38.45 µg/µg/mL

Cn1cc(C[C@@H](N)C(=O)O)c2ccccc21 [Free IND, 1-methyl-D-tryptophan]
AUC(0-inf) ([2]; 1.7 mg/kg): 5670 ± 540 ng·h/mL | AUC(0-t) ([2]; 1.7 mg/kg): 5660 ± 530 ng·h/mL | MRT ([2]; 1.7 mg/kg): 24.6 ± 5.4 min | half-life ([2]; 1.7 mg/kg): 4.8 ± 1.2 min | AUMC [2, 8]: 2.38 ± 0.71 μg/mL*h2 | CL [2, 8]: 12.08 ± 1.17 μg/(μg/mL)/h | V [2, 8]: 4.94 ± 0.63 μg/(μg/mL) | Vss [2, 8]: 4.95 ± 0.63 μg/(μg/mL)

COc1cccc2c1C(=O)c1c(O)c3c(c(O)c1C2=O)C[C@@](O)(/C(CO)=N\NC(=O)OCCSSCCOC(=O)C(N)Cc1cn(C)c2ccccc12)C[C@@H]3O[C@H]1C[C@H](N)[C@H](O)[C@H](C)O1 (stereo in doubt) [DOX-IND, 2-((2-((1-methyl-D-tryptophyl)oxy)ethyl)disulfanyl)ethyl (Z)-2-(1-((2S,4S)-4-(((2R,4S, 5S, 6S)-4-amino-5-hydroxy-6-methyltetrahydro-2H-pyran-2-yl)oxy)-2,5,12-trihydroxy-7-methoxy-6,11-dioxo-1,2,3,4,6,11-hexahydrotetracen-2-yl)-2-hydroxyethylidene)hydrazine-1-carboxylate]
tumor growth in large MC38 tumors (MC38 tumor): did not show significant tumor growth inhibition

1,2-dioleoyl-sn-glycero-3-phosphoethanolamine-N-(cyanine 5.5) [Free DSPE-Cy5.5]
fluorescence signal in tumors [4]: no observable signal in tumors

— patent publication US20240009321A1, “IMMUNOGENIC NANOVESICLES FOR CANCER IMMUNOTHERAPY” (Arizona Board of Regents on Behalf of the University of …, priority 2020, published 2024)
